Assay results: patent US20260308158A1, “TARGETING RNAS ASSOCIATED WITH TAUOPATHIES WITH SMALL MOLECULES” (University of Florida Research Foundation, Incorporated, priority 2023, published 2026)

Tests used:
[1] = test system: phosphorylated tau / NeuN positive neurons in cortex; assay: Brain immunohistochemistry in htau mice (AT8, NeuN); format: in vivo, htau mouse; settings: 100 mg/kg p.o. q.o.d.
Procedure: Brain Tissue Histology. Left brain hemispheres of htau mice were harvested for total RNA. Right brain hemispheres (unfrozen) of htau mice were stored in 10% neutral buffered formalin (VWR) for 48 h. Tissue processing, embedding, and sectioning were performed and generated by the Scripps Florida Histology Core. Briefly, tissue was embedded in paraffin using a Sakura Tissue-Tek VIP5 paraffin processor, sectioned at 4 μm, and then mounted on positively charged slides for further immunostaining. The slides were stained on a Leica BondMax Immunostaining platform with the following primary antibodies: AT8 (MN1020, Invitrogen; 1:100 dilution) and NeuN (MAB377B, Chemicon; 1:500 dilution). After the slides were washed three times with 1×DPBS, a DAB Substrate Kit (Vector Laboratories, Inc.) was used to detect the primary antibodies per the manufacturer's protocol. After staining was complete, the slides were dehydrated, cover-slipped with Cytoseal 60 (Thermo Scientific), and imaged with a Leica DMI3000 B upright fluorescent microscope using 20× or 60× objective. Quantification was performed in a blinded fashion using ImageJ in which positivity was identified as aggregates (purple staining of AT8 or brown staining of NeuN) with diameter over 20 μm and staining signal over 185 that were kept constant across all treatment groups.

[2] = test system: WT I17T MAPT mini-gene (exon 10 splicing); assay: 4R/3R MAPT mRNA by RT-qPCR, HeLa cells transfected with WT I17T mini-gene; format: cell-based
Procedure: (§1) RNA Isolation and Real-Time Quantitative PCR (RT-qPCR). HeLa cells were treated as described in the Luciferase Reporter assay to Study Exon 10 Alternative Splicing. LAN5 cells were seeded in 12-well plates at 0.2×10^6 cells per well, treated with compound or ASO, and incubated for 48 h. Compound stocks prepared in DMSO and ASO stocks prepared in water were diluted in growth medium and added to cells. Total RNA was extracted from cells and analyzed via RT-qPCR to determine levels of 3R and 4R tau mRNA. In brief, the cells were washed with 1×DPBS and then lysed in the well using 300 μL of Lysis Buffer provided in a Quick-RNA MiniPrep kit (Zymo Research), which was used to extract total RNA per the manufacturer's protocol including the on-column DNase I digestion. The concentration of total RNA was measured by NanoDrop 2000 (Thermo Fisher Scientific). Only samples with OD260/OD280>1.8 were carried forward for analysis. Reverse transcription (RT) was carried out on 200 ng of total RNA using a qScript cDNA synthesis kit (QuantaBio) in a total volume of 10 μL according to the manufacturer's protocol. An Applied Biosystems QS5 384-well PCR system was used to complete qPCR reactions with Power SYBR Green Master Mix (Life Technologies), 600 nM each primer (Table S3), 20 ng of cDNA (1 μL of the RT reaction), in a total volume of 33 μL. Technical triplicates (10 μL each) were aliquoted into 384-well qPCR plates (Applied biosystems, 4483285). Subsequent qPCR analysis was performed using an Applied Biosystems QS5 384-well PCR system (software v.1.3.0). 4R/3R ratio were analyzed using ΔΔCt method using Equation 2: […]
where ΔCt 4R or ΔCt 3R is the difference between the Ct values for the 4R or 3R MAPT mRNA and a housekeeping gene (18S rRNA) in total RNA from cells.

7-deaza-guanosine WT RNA = assay: Fluorescent binding affinity, 7-deaza-guanosine WT RNA; settings: n=3, read-out: Kd (affinity for the modified RNA)
Procedure: Fluorescent Binding Affinity Measurements. Binding assays were completed as previously described.^30 Briefly, the RNA of interest was folded in 1× Assay Buffer-1 (AB1: 8 mM Na2HPO4, pH 7.0, 185 mM NaCl, and 1 mM EDTA) by heating at 95° C. for 30 s followed by slowly cooling to room temperature. Bovine serum albumin (BSA) was then added to a final concentration of 40 μg/mL to afford 1× Assay Buffer-2 (AB2: 8 mM Na2HPO4, pH 7.0, 185 mM NaCl, 1 mM EDTA, and 40 μg/mL BSA). The RNA solution was serial diluted with 1×AB2. Then, compound of interest was added to the RNA solutions to a final concentration of 0.5 μM. […] Fluorescence intensity was measured using a Tecan Plate Reader (Gain: 100, Integration time: 40 μs). […] The change in fluorescence of the small molecule was calculated by its comparison to samples lacking RNA. Binding affinity was calculated using Equation 1, as previously described:^30
where I and I0 are the measured fluorescence intensity of the compound with or without RNA, respectively, Δε is the difference between the fluorescence intensity with the infinite concentration of RNA and the fluorescence intensity without RNA, [SM]0 and [RNA]0 are the concentrations of the small molecule (SM) and RNA, respectively, and Kd is the dissociation constant.

[3] = test system: DDPAC MAPT mini-gene (exon 10 splicing); assay: 4R/3R MAPT mRNA by RT-qPCR, HeLa cells transfected with DDPAC mini-gene; format: cell-based
Procedure: as §1, with “An Applied Biosystems QS5 384-well PCR system was used to complete qPCR reactions with Power SYBR Green Master Mix (Life Technologies), 600 nM each primer (Table S3), 20 ng of cDNA (1 μL of the RT reaction), in a total volume of 33 μL. Technical triplicates (10 μL each) were aliquoted into 384-well qPCR plates (Applied biosystems, 4483285). Subsequent qPCR analysis was performed using an Applied Biosystems QS5 384-well PCR system (software v.1.3.0).” left out

[4] = Body weight / tolerability, WT mice; format: in vivo, WT mouse (C57BL/6J); settings: 100 mg/kg p.o. q.o.d., 20 days
Text: hTau Mice Studies. htau mice and WT mice (C57BL/6J) were purchased from Jackson Laboratories. htau mice were maintained in-house through breeding between htau+/− mice. Genotype was confirmed by PCR amplification as previously described.^18 Only homozygous mice were used in in vivo studies. Mice were randomly assigned to a treatment group, which were age- and gender-matched (n=X). In these studies, mice were >9 months of age since cognitive and physiological impairments in htau mice was age-dependent and were not presented in young mice (<4 months) with early-stage tau pathology.^42 Mice were orally administered vehicle (5/5/90 DMSO/Tween-80/H2O) or 100 mg/kg of 2 in the same formulation every other day (q.o.d.). During the treatment period, nesting activity was assessed, as describe in Nesting Activity below. After 20 days, the mice were euthanized (in accordance with guidelines provided by the American Veterinarian Medical Association), and the brain was harvested for analysis. One hemisphere of the brain was frozen at −80° C. for RT-qPCR analyses while the other was used for histological studies.

COc1cc(N)ncc1CCCN(C)CCCn1cnc2c3ccccc3n(C)c2c1=O [Compound 2, 3-(3-((3-(6-amino-4-methoxypyridin-3-yl)propyl)(methyl)amino)propyl)-5-methyl-3,5-dihydro-4H-pyrimido[5,4-b]indol-4-one]
AT8 antibody immunoreactivity (phosphorylated tau) [1]: reduced antibody immunoreactivity throughout the cortex
NeuN (neuron viability) [1]: enhanced
PSI10 (PSI of MAPT exon 10) vs vehicle [2]: not WT I17T or DDPAC I17T mutant
change in 4R/3R ratio (not statistically significant) ([2]; 1 at 10 μM or 2 at 1.5 μM): < 16%
Kd (7-deaza-guanosine WT RNA): 3.4 ± 0.9 µM
PSI10 (PSI of MAPT exon 10) vs vehicle ([3]; HeLa, DDPAC mini-gene): downregulated
inhibition at 1.5 µM ([3]; Homo sapiens, 2 at 1.5 μM, 48 h, HeLa DDPAC mini-gene, read-out: reduction of 4R/3R ratio (mRNA)): 42 ± 3%
change in weight [4]: no change in the weight
